Results taken from publication PMC3282010 (The AAPS Journal, 2011).
Like-named read-outs stand apart in the source and are kept apart here. Marks after values point to notes of the source that are not given here.

What was measured:
[1] = cited from earlier work
OATP1B1 [2] = target: T1, OATP1B1 (Homo sapiens, UniProt Q9Y6L6); conditions: for Uptake into OATP1B1 over-expressing cells: 3 μM, incubation for 40 s, 37°C, mean ± SD; for Difference in uptake rate between wild-type and OATP over-expressing cells: OATP1B1, different concentrations tested (Fig. 6)
T1 sequence (Q9Y6L6 whole entry): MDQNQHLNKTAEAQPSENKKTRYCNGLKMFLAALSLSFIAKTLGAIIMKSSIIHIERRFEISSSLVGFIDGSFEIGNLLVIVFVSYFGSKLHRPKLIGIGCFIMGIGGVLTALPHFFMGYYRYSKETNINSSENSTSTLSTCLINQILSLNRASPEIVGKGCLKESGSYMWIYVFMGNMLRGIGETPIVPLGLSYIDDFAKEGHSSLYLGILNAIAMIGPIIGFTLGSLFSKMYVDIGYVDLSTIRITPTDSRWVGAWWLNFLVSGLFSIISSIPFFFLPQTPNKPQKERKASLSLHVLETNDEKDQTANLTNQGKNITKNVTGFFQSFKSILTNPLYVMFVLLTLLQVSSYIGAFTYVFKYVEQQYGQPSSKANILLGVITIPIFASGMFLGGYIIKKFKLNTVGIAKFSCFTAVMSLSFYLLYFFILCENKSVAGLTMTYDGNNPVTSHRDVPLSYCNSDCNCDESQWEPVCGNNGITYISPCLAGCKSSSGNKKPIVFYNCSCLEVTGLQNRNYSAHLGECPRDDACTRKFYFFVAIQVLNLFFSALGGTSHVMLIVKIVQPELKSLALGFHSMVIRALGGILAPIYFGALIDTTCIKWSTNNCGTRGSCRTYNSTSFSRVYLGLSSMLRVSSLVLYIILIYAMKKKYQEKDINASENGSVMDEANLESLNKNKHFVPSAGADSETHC

OATP1B1 [3] = target: T1, OATP1B1; conditions: OATP inhibition IC50 versus free plasma concentration
wild-type CHO cells = conditions: 3 μM, incubation for 40 s, 37°C; mean ± SD
[4] = cited from earlier work; remark: listed apart in the source
clinical [5] = conditions: human, plasma, oral, AUCτ, part A, macitentan + Cs, 384–408 h (day 17 of period 2), steady-state, geometric mean (95% CI)
[6] = tested on: endothelin ETA and ETB receptor; conditions: dual ERA; cited from earlier work
OATP1B3 [7] = target: T2, OATP1B3 (Homo sapiens, UniProt Q9NPD5)
T2 sequence (Q9NPD5 whole entry): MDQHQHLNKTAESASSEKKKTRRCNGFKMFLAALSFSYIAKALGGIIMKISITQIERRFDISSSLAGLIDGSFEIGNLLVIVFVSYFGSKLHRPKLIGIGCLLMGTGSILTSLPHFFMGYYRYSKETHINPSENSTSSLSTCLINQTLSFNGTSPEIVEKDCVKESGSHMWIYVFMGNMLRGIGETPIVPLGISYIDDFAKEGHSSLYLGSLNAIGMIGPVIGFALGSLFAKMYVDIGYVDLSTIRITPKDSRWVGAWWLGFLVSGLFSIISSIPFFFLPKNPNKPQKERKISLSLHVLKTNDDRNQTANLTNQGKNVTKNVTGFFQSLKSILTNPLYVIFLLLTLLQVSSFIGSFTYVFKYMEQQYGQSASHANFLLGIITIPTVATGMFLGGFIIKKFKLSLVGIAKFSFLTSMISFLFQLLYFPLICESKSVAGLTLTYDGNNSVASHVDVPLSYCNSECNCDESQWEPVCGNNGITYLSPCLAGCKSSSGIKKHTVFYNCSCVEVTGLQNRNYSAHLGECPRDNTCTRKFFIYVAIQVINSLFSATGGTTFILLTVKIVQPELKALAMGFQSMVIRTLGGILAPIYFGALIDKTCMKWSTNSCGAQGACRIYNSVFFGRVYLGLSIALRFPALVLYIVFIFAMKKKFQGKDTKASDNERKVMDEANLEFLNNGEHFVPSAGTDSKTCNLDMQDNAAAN

clinical [8] = conditions: human, in vivo, AUCτ
OATP1B1 [9] = target: T1, OATP1B1
OATP1B3 [10] = target: T2, OATP1B3; conditions: for Uptake into OATP1B3 over-expressing cells: 3 μM, incubation for 40 s, 37°C, mean ± SD; for Difference in uptake rate between wild-type and OATP over-expressing cells: OATP1B3, different concentrations tested (Fig. 6)
[11] = human, in vivo
[12] = for Total plasma concentration at steady-state: healthy subjects, 10-mg once-daily regimen; for Ratio of geometric means of AUCτ / Ratio of geometric means of C tr: macitentan + Cs vs macitentan; for Ratio of geometric means of AUCτ: AUC(384h-408h)/AUC(96h-120h); for Ratio of geometric means of C tr: period 2 versus period 1
[13] = strong CYP3A4 inhibitor; cited from earlier work
[14] = in humans, after the first day of co-administration of Cs; cited from earlier work
[15] = macitentan + Cs versus macitentan alone
[16] = part A, macitentan + Cs, 384–408 h (day 17 of period 2), geometric mean (95% CI)
[17] = part A, macitentan alone, 96–120 h (day 5 of period 1), geometric mean (95% CI)

Row | Uptake into OATP1B1 over-expressing cells (OATP1B1 [2]) [pmol/mg] | Difference in uptake rate between wild-type and OATP over-expressing cells (OATP1B1 [2]) | Free steady-state plasma concentration lower than the lowest IC50 determined (OATP1B1 [3]) | Uptake into wild-type cells (wild-type CHO cells) [pmol/mg] | AUC (clinical [5]) [ng·h/mL] | IC50 (OATP1B1 [9]) [µM] | Uptake into OATP1B3 over-expressing cells (OATP1B3 [10]) [pmol/mg] | Difference in uptake rate between wild-type and OATP over-expressing cells (OATP1B3 [10]) | Decrease of steady-state AUCτ in the presence of rifampin [11] [%] | Ratio of geometric means of AUCτ [11] | Ratio of geometric means of C tr [11] | Total plasma concentration at steady-state [12] | Ratio of geometric means of AUCτ ([12]; part A) | Ratio of geometric means of C tr ([12]; part A) | C tr [12, 16] | C tr [12, 17] | Increase of steady-state AUCτ in the presence of Cs [12, 15] [%] | Structure (SMILES) | elimination half-life (t 1/2) ([1]; in humans) | Binding to human plasma proteins in vitro [4] [%] | also measured
1 | 237 ± 7 | No marked difference | around 2,490 fold | 214 ± 11 | 16400 | 19.9 ± 1.4 | 288 ± 10 | No marked difference | 0.3 | 1.00 ng·h/mL | 0.83^a ng·h/mL | ~1.5 µM | 0.97 ng·h/mL | 1.02 ng·h/mL | 640 (550, 745) ng/mL | 626 (547, 717) ng/mL | – | NS(=O)(=O)Nc1ncnc(OCCOc2ncc(Br)cn2)c1-c1ccc(Br)cc1 [ACT-132577] | approximately 48 h | 99.5 | Potency in vitro relative to macitentan (less potent) [6]: approximately five-fold; IC50 (OATP1B3 [7]): 51.6 ± 3 µM; AUC (clinical [8]): 14800 ng·h/mL; AUCτ [11]: 14,798 (13,216, 16,569) ng·h/mL; Systemic exposure in humans relative to macitentan (higher) ([12]; in humans): 2.5 fold; Decrease of steady-state AUCτ in the presence of Cs [12, 15]: 3%
2 | – | – | – | – | – | – | – | – | 64 | 0.36^a ng·h/mL | 0.14^a ng·h/mL | – | 1.07^a ng·h/mL | 1.12^a ng·h/mL | 20 (15, 26) ng/mL | 17 (13, 24) ng/mL | 7 | CCCNS(=O)(=O)Nc1ncnc(OCC(=O)O)c1-c1ccc(Br)cc1 [ACT-373898] | – | – | AUCτ ([12]; part A, macitentan + Cs, 384–408 h (day 17 of period 2), steady-state, plasma, geometric mean (95% CI)): 568 (432, 747) ng·h/mL
3 | 362 ± 6 | No marked difference | around 2,490 fold | 346 ± 3 | 7560 | 6.3 ± 0.7 | 387 ± 11 | No marked difference | 79 | 0.21^a ng·h/mL | 0.07^a ng·h/mL | approximately 0.63 μM | 1.10^a ng·h/mL | 1.38^a ng·h/mL | 220 (176, 274) ng/mL | 159 (121, 209) ng/mL | 10 | CCCNS(=O)(=O)Nc1ncnc(OCCOc2ncc(Br)cn2)c1-c1ccc(Br)cc1 [Macitentan] | approximately 16 h | 99.6 | Time to maximum plasma concentrations after administration ([1]; in humans): approximately 8 h; Tolerability ([1]; single-ascending dose study, doses of up to 300 mg): well tolerated; Increase of AUC0–∞ in the presence of ketoconazole [13]: approximately two-fold; Reduction in exposure in the presence of rifampin [11]: approximately four-fold; Tolerability [11]: well tolerated; Tolerability ([12]; co-administered with Cs, healthy male subjects): well tolerated; Subjects affected by treatment-emergent AEs ([12]; part A, period 1 (macitentan alone), 10 subjects): 30%
4 | – | – | – | – | – | – | – | – | – | – | – | – | – | – | – | – | – | COc1ccccc1Oc1c(NS(=O)(=O)c2ccc(C(C)(C)C)cc2)nc(-c2ncccn2)nc1OCCO [bosentan] | – | – | Increase in exposure in the presence of Cs [14]: 30 fold
